Format in all cases: in vivo, human
The subject of data set [1] is male patients with moderate ulcerative colitis. Description: Study 2: phase III, multi-center, randomized, double-blind, controlled clinical trial, overall improvement (treatment success) at week 6. Conditions: moderate disease. On the procedure:
(§1) Administration of mesalamine at 4.8 g/day via three daily doses consisting of two, 800 mg dosage tablets provides a clear efficacy benefit over 2.4 g/day of mesalamine given as three daily doses consisting of two, 400 mg dosage tablets and addresses an unmet medical need for men with moderate ulcerative colitis. […] Data from patients with mild to moderate Ulcerative colitis (UC) are combined and analyzed from two phase III, multi-center, randomized, double-blind, controlled clinical trials of identical design assessing the safety and clinical efficacy of the increased dosage of 5-ASA. The two clinical trials are referred to herein as “Study 1” and “Study 2.” The primary endpoint is the percentage of moderate UC patients achieving overall improvement (i.e., treatment success) from baseline at week 6. This is defined as: (1) complete response (remission); complete resolution of signs and symptoms (stool frequency, rectal bleeding, Patient Functional Assessment (PFA) and sigmoidoscopy score) and a Physician's Global Assessment (PGA) of 0; or (2) partial response; improvement from baseline in the PGA score and improvement in at least one clinical assessment (stool frequency, rectal bleeding, PFA or sigmoidoscopy score) and no worsening in any of the other clinical assessments. […]

Data set [2] has as its system person diagnosed with moderate Ulcerative colitis. The data set can be described thus: Single-patient treatment examples (Examples 2-5): person diagnosed with moderate ulcerative colitis. From the text:
A 70 kg person diagnosed with moderate Ulcerative colitis is prescribed a pharmaceutical oral composition comprising 1.2 g of olsalazine (mol. wt. 302.24), a mesalamine dimer, two tablets to be taken twice daily for a total of 4.8 g/day of the 5-ASA dimer (5-ASA mol. wt.=153.14). The patient takes two tablets of the pharmaceutical in the morning and two tablets in the evening such that about 4.8 g/day of 5-ASA is delivered. The Physician's Global Assessment (PGA) score improves in comparison to baseline and rectal bleeding reduces. A 72 kg person diagnosed with moderate Ulcerative colitis is prescribed a pharmaceutical composition comprising four 1.2 g mesalamine delayed-release tablets, to be taken once daily. The four tablets are taken in the morning so that 4.8 g/day of 5-ASA is delivered. The Physician's Global Assessment (PGA) score improves in comparison to baseline and rectal bleeding reduces. A 75 kg person diagnosed with moderate Ulcerative colitis is prescribed a pharmaceutical oral composition comprising two 1.2 g balsalazide delayed-release tablets, to be taken three times daily for a total of 7.2 g/day of balsalazide; this regimen is calculated to deliver about 3.1 g of 5-ASA. The Physician's Global Assessment (PGA) score improves in comparison to baseline and rectal bleeding reduces. A 71 kg person diagnosed with moderate Ulcerative colitis is prescribed a pharmaceutical composition comprising a rectal mesalamine foam. The foam is administered three times per day (morning, afternoon, and evening) such that 1 g of mesalamine is administered at each interval for a total of 3 g of mesalamine per day. The Physician's Global Assessment (PGA) score improves in comparison to baseline and rectal bleeding is reduced.

In data set [3] the test system is male patients with moderate ulcerative colitis. Description: Bayesian analysis of success rate in men with moderate disease. On the procedure:
In addition, a Bayesian analysis is conducted to calculate the probability that treatment with the 4.8 g/day dose in men results in a higher success rate than treatment with the 2.4 g/day dose. This type of analysis considers data from any previous studies conducted using either of the two dose levels. Success rates from male patients with moderate disease at baseline from three previous mesalamine studies are used to estimate the prior distributions for the 2.4 g/day dose and the 4.8 g/day dose. Using these prior distributions and Bayes analyses, the “posterior distribution” is calculated for each dose level based on the data obtained from […].

Data set [4] has the same test system. Description: Study 1: phase III, multi-center, randomized, double-blind, controlled clinical trial, overall improvement (treatment success) at week 6. The following applies: moderate disease. On the procedure:
as §1

Data set [5] has the same test system. The data set can be described thus: Study 1 and Study 2 combined: subgroup analyses and safety. The protocol: Data from patients with mild to moderate Ulcerative colitis (UC) are combined and analyzed from two phase III, multi-center, randomized, double-blind, controlled clinical trials of identical design assessing the safety and clinical efficacy of the increased dosage of 5-ASA. The two clinical trials are referred to herein as “Study 1” and “Study 2.” Pre-specified subgroup analyses for fifty-four demographic and baseline characteristics are performed in patients with moderately active disease (PGA score=2) to assess consistency of primary endpoint. […] To further evaluate the robustness of the results in men with moderate disease, whisker plots (i.e., point estimate and 95% confidence interval for the difference between the 2.4 g/day group and the 4.8 g/day group) for various subgroups defined on the basis of baseline characteristics (e.g., disease severity, demographic parameters) are prepared. […] FIG. 1 (a) is a subgroup analysis of treatment outcome at week 6 for male patients with moderate disease for Study 1 and Study 2 combined; (b) is a subgroup analysis of treatment outcome at week 6 for female patients with moderate disease for Study 1 and Study 2 combined. FIG. 2 (a) is a subgroup analysis of treatment outcome at week 6 for male patients with moderate disease for Study 1 and Study 2 combined; (b) is a subgroup analysis of treatment outcome at week 6 for female patients with moderate disease for Study 1 and Study 2 combined. FIG. 3 (a) is a subgroup analysis of treatment outcome at week 6 for male patients with moderate disease for Study 1 and Study 2 combined; (b) is a subgroup analysis of treatment outcome at week 6 for female patients with moderate disease for Study 1 and Study 2 combined. […]

Setting [6] is: Example 3, four 1.2 g delayed-release tablets once daily, 4.8 g/day, 72 kg person.
The mark [7] stands for this setting: Example 4, oral, two 1.2 g delayed-release tablets three times daily, 7.2 g/day (about 3.1 g 5-ASA), 75 kg person.

The structures appear in SMILES notation.

In the case of `Nc1ccc(O)c(C(=O)O)c1` [mesalamine, 5-amino-2-hydroxybenzoic acid], the “Difference in Proportions (4.8 g/day vs 2.4 g/day)” value in data set [1] (Primary Analysis) amounted to 27.5%; in data set [1] (Set-to-Failure analysis), 24.8%; in data set [4] (Primary Analysis), 25.5%; in data set [4] (Set-to-Failure analysis), 27.3%. Further, the “Physician's Global Assessment (PGA) score in comparison to baseline” value (from here on “Physician's Global Assessment”) in data set [2] (setting [6]) is given as “improves”. In addition, in data set [2] (setting [6]), the Rectal bleeding result is on record as “reduces”. Further, the “Probability of a successful treatment outcome (Bayes analysis)” value came out at 47.2% in data set [3] (2.4 g/day dose, 95% credible interval 35.7%, 58.9%) and 74.7% in data set [3] (4.8 g/day dose, 95% credible interval 64.9%, 83.5%). The “Probability that 4.8 g/day dose results in a higher success rate than 2.4 g/day dose” value in data set [3] (Bayes analysis) amounted to 99.97%. For the same molecule, the “Safety profile of 4.8 g/day regimen versus 2.4 g/day regimen” value in data set [5] (4.8 g/day (800 mg tablet) vs 2.4 g/day (400 mg tablet), oral delayed-release) is listed as “comparable”. Besides, in data set [5] (males with moderate disease, combined population, 51 of 54 subgroups), the “Difference between 4.8 g/day group and 2.4 g/day group across pre-specified subgroups” value is “consistently superior to the 2.4 g/day group”. Besides, the “Observed differences in success rate between treatment groups (4.8 vs 2.4 g/day)” value in data set [5] (men with moderate disease, both studies) is on record as “approximately 25%”.
As for `O=C(O)c1cc(N=Nc2ccc(O)c(C(=O)O)c2)ccc1O` [olsalazine, 3,3′-dicarboxy-4,4′-dihydroxyazobenzene], in data set [2] (Example 2, oral, two 1.2 g tablets twice daily, 4.8 g/day, 70 kg person), the “Physician's Global Assessment” value is recorded as “improves”.
For `O=C(O)CCNC(=O)c1ccc(/N=N/c2ccc(O)c(C(=O)O)c2)cc1` [balsalazide, (E)-5-[[4-[[(2-carboxyethyl)amino]carbonyl]phenyl]azo]-2-hydroxybenzoic acid], in data set [2] (setting [7]), the “Physician's Global Assessment” value is “improves” and the Rectal bleeding result was “reduces”.

(Values after patent publication US20100048519A1, “METHODS OF TREATMENT FOR ULCERATIVE COLITIS USING AMINOSALICYLATE” (priority 2006, published 2010).)
